In patent US10093630B2, “Pyrazole compounds and methods of making and using same” (ABIDE THERAPEUTICS, INC., priority 2014, dated 2018):
Where two headings read alike, the source gives them in different places.

What was measured:
Assay in all cases: In vitro competitive activity-based protein profiling (gel-based, FP-Rh or HT-01 probe)
Type in all cases: biochemical
MAGL = target: T1, MAGL (Mus musculus, UniProt O35678); settings: for inhibition at 10 µM: 10 μM inhibitor; for inhibition at 1 µM: 1 μM inhibitor; for IC50: mouse brain membrane fraction or cell lysates, 30 min preincubation at 37° C., read-out: Mouse (IC50 value, nM) MAGL
T1 construct: Proteomes (mouse brain membrane fraction or cell lysates); from tissue; host or cells: mouse brain membrane fraction (or cell lysates, not specified)
T1 sequence (O35678 1-303): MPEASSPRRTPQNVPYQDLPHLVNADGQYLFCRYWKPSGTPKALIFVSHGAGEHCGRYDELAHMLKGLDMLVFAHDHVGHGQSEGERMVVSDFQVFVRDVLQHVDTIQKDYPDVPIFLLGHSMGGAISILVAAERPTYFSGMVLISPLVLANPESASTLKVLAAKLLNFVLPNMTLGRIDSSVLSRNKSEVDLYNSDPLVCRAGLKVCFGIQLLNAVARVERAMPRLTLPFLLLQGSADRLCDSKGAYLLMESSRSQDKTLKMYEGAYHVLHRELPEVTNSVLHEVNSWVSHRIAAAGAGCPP
Protocol: (§1) In Vitro Competitive Activity-Based Protein Profiling.
(§2) Proteomes (mouse brain membrane fraction or cell lysates) (50 μL, 1.0 mg/mL total protein concentration) were preincubated with varying concentrations of inhibitors at 37° C. After 30 min, FP-Rh or HT-01 ([…], 50 μM in DMSO) was added and the mixture was incubated for another 30 min at 37° C. Reactions were quenched with SDS loading buffer (15 μL—4×) and run on SDS-PAGE. Following gel imaging, serine hydrolase activity was determined by measuring fluorescent intensity of gel bands corresponding to MAGL, ABHD6, FAAH, and PLA2G7 using ImageJ 1.43u software.

FAAH = target: T2, FAAH (Mus musculus, UniProt O08914); settings: for inhibition at 10 µM: 10 μM inhibitor, read-out: % Inhibition at 10 μM, B = FAAH; for inhibition at 1 µM: 1 μM inhibitor, read-out: % Inhibition at 1 μM, B = FAAH; for IC50: mouse brain membrane fraction or cell lysates, 30 min preincubation at 37° C., read-out: Mouse (IC50 value, nM) FAAH
T2 construct: Proteomes (mouse brain membrane fraction or cell lysates); from tissue; host or cells: mouse brain membrane fraction (or cell lysates, not specified)
T2 sequence (O08914 1-579): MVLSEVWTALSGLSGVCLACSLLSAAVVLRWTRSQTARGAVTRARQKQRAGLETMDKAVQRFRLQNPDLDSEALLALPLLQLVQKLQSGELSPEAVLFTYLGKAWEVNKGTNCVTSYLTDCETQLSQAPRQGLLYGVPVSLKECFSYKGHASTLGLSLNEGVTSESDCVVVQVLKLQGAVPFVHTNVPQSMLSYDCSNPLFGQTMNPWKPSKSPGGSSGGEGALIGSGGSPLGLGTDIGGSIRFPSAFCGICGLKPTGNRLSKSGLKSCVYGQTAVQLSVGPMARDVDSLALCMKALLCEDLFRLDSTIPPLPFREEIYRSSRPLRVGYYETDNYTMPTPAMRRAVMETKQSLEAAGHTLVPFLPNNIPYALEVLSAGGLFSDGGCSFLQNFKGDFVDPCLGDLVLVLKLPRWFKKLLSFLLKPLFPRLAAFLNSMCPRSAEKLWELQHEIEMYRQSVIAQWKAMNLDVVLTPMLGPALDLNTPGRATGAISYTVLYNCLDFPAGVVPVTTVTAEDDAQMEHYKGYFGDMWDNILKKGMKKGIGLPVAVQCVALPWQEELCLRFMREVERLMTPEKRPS
Protocol: as §1, §2

PLA2G7 = target: T3, PLA2G7 (Mus musculus, UniProt Q60963); settings: for inhibition at 1 µM: 1 μM inhibitor, read-out: % Inhibition at 1 μM, D = PLA2G7; for inhibition at 10 µM: 10 μM inhibitor, read-out: % Inhibition at 10 μM, D = PLA2G7; for IC50: mouse brain membrane fraction or cell lysates, 30 min preincubation at 37° C.
T3 construct: Proteomes (mouse brain membrane fraction or cell lysates); from tissue; host or cells: mouse brain membrane fraction (or cell lysates, not specified)
T3 sequence (Q60963 22-440): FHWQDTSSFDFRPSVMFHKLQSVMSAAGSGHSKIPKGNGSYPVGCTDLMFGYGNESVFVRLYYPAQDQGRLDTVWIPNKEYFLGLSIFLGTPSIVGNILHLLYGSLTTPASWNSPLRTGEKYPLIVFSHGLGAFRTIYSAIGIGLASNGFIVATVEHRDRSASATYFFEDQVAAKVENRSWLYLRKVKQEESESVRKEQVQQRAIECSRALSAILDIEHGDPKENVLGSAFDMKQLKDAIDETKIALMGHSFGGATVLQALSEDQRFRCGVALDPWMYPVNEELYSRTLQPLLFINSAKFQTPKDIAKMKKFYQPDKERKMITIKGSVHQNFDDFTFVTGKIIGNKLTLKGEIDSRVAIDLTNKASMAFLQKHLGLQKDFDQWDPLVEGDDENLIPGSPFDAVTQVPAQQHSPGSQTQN
Protocol: as §1, §2

ABHD6 = target: T4, ABHD6 (Mus musculus, UniProt Q8R2Y0); settings: for inhibition at 1 µM: 1 μM inhibitor, read-out: % Inhibition at 1 μM, C = ABHD6; for inhibition at 10 µM: 10 μM inhibitor, read-out: % Inhibition at 10 μM, C = ABHD6; for IC50: mouse brain membrane fraction or cell lysates, 30 min preincubation at 37° C., read-out: Mouse (IC50 value, nM) ABHD6
T4 construct: Proteomes (mouse brain membrane fraction or cell lysates); from tissue; host or cells: mouse brain membrane fraction (or cell lysates, not specified)
T4 sequence (Q8R2Y0 1-336): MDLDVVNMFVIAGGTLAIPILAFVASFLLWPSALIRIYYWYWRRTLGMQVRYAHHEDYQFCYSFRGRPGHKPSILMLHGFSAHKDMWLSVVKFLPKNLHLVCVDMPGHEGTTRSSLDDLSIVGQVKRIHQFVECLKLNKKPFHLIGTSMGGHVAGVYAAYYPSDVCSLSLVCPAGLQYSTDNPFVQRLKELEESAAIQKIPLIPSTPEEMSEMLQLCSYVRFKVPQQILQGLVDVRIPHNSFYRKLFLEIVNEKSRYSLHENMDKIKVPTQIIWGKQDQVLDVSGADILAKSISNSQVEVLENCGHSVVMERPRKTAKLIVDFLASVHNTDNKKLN
Protocol: as §1, §2

inhibition at 10 µM (MAGL)	inhibition at 10 µM (FAAH)	inhibition at 1 µM (PLA2G7)	inhibition at 10 µM (PLA2G7)	inhibition at 1 µM (ABHD6)	inhibition at 10 µM (ABHD6)	inhibition at 1 µM (MAGL)	inhibition at 1 µM (FAAH)	inhibition at 1 µM (MAGL; gel-based competitive ABPP)	inhibition at 1 µM (FAAH; gel-based competitive ABPP)	inhibition at 1 µM (PLA2G7; gel-based competitive ABPP)	inhibition at 1 µM (ABHD6; gel-based competitive ABPP)	IC50 (MAGL)	IC50 (FAAH)	IC50 (PLA2G7)	IC50 (ABHD6)	Structure (SMILES)
< 25%	25 to 75%	< 25%	> 75%	25 to 75%	> 75%	–	–	–	–	–	–	–	–	–	–	O=C(c1cnn(C(=O)N2CCN(Cc3ccncc3)CC2)c1)N1CCCC1 [Example 79, (4-(Pyridin-4-ylmethyl)piperazin-1-yl)(4-(pyrrolidine-1-carbonyl)-1H-pyrazol-1-yl)methanone]
< 25%	> 75%	< 25%	< 25%	< 25%	< 25%	< 25%	< 25%	–	–	–	–	–	–	–	–	N#Cc1cnn(C(=O)NCCCc2ccccc2)c1 [Example 33, 4-Cyano-N-(3-phenylpropyl)-1H-pyrazole-1-carboxamide]
> 75%	> 75%	> 75%	> 75%	> 75%	> 75%	< 25%	> 75%	–	–	–	–	–	–	–	–	Cc1cc(-c2ccccc2)ccc1CN1CCN(C(=O)n2cc(-c3ccccc3)cn2)CC1 [Example 65, (4-((3-Methyl-[1,1′-biphenyl]-4-yl)methyl)piperazin-1-yl)(4-phenyl-1H-pyrazol-1-yl)methanone]
> 75%	> 75%	> 75%	> 75%	> 75%	> 75%	> 75%	> 75%	–	–	–	–	–	–	–	–	CC(C)(C)OC(=O)N1CCN(C(=O)n2cc(C#N)cn2)CC1 [Example 6, tert-Butyl 4-(4-cyano-1H-pyrazole-1-carbonyl)piperazine-1-carboxylate]
< 25%	< 25%	–	< 25%	–	< 25%	–	–	–	–	–	–	–	–	–	–	Cc1cnn(C(=O)N(C)CCN(C)C(=O)c2ccccc2)c1 [Example 172, N,4-Dimethyl-N-(2-(N-methylbenzamido)ethyl)-1H-pyrazole-1-carboxamide]
< 25%	25 to 75%	< 25%	> 75%	< 25%	< 25%	< 25%	< 25%	–	–	–	–	–	–	–	–	CN1CCCN(C(=O)n2cc(C(F)(F)F)cn2)CC1 [Example 156, (4-Methyl-1,4-diazepan-1-yl)(4-(trifluoromethyl)-1H-pyrazol-1-yl)methanone]
–	–	–	–	–	–	–	–	> 75%	> 75%	< 25%	> 75%	–	–	–	–	N#Cc1cnn(C(=O)N2CCCN(Cc3cccc(Oc4ccccc4)c3)CC2)c1 [Example 299, 1-(4-(3-Phenoxybenzyl)-1,4-diazepane-1-carbonyl)-1H-pyrazole-4-carbonitrile]
–	–	–	–	–	–	–	–	> 75%	> 75%	> 75%	> 75%	< 100 nM	< 100 nM	100 to 1000 nM	< 100 nM	O=C(N1CCN(Cc2cccc(C(F)(F)F)c2)CC1)n1cc(C(F)(F)F)cn1 [Example 272, (4-(Trifluoromethyl)-1H-pyrazol-1-yl)(4-(3-(trifluoromethyl)benzyl)piperazin-1-yl)methanone]
–	–	–	–	–	–	–	–	25 to 75%	< 25%	< 25%	< 25%	–	–	–	–	Cc1cnn(C(=O)N2CCCN(Cc3ccc(OCc4ccccc4)cc3)CC2)c1 [Example 302, (4-(4-(Benzyloxy)benzyl)-1,4-diazepan-1-yl)(4-methyl-1H-pyrazol-1-yl)methanone]
–	–	< 25%	–	> 75%	–	> 75%	> 75%	–	–	–	–	< 100 nM	< 100 nM	> 1000 nM	100 to 1000 nM	O=C(N1CCN(Cc2cccc(Cl)c2)CC1)n1cc(Cl)cn1 [Example 225, (4-Chloro-1H-pyrazol-1-yl)(4-(3-chlorobenzyl)piperazin-1-yl)methanone]
< 25%	> 75%	> 75%	> 75%	> 75%	> 75%	–	–	–	–	–	–	–	–	–	100 to 1000 nM	O=C(N1CCN(Cc2nccs2)CC1)n1cc(-c2ccccc2)cn1 [Example 63, (4-Phenyl-1H-pyrazol-1-yl)(4-(thiazol-2-ylmethyl)piperazin-1-yl)methanone]
> 75%	> 75%	< 25%	> 75%	> 75%	> 75%	> 75%	> 75%	–	–	–	–	100 to 1000 nM	< 100 nM	–	100 to 1000 nM	Cc1cc(-c2ccccc2)ccc1CN1CCN(C(=O)n2cc(C(=O)N3CCOCC3)cn2)CC1 [Example 57, (4-((3-Methyl-[1,1′-biphenyl]-4-yl)methyl)piperazin-1-yl)(4-(morpholine-4-carbonyl)-1H-pyrazol-1-yl)methanone]
25 to 75%	> 75%	< 25%	< 25%	< 25%	< 25%	< 25%	25 to 75%	–	–	–	–	–	–	–	–	CN(CCN(C)C(=O)n1cc(Cl)cn1)C(=O)c1ccccc1 [Example 194, 4-Chloro-N-methyl-N-(2-(N-methylbenzamido)ethyl)-1H-pyrazole-1-carboxamide]
< 25%	< 25%	< 25%	> 75%	< 25%	25 to 75%	< 25%	< 25%	–	–	–	–	–	–	–	–	O=C(c1cnn(C(=O)N2CCN(Cc3cncnc3)CC2)c1)N1CCCC1 [Example 84, (4-(Pyrimidin-5-ylmethyl)piperazin-1-yl)(4-(pyrrolidine-1-carbonyl)-1H-pyrazol-1-yl)methanone]
